Measurements from US20060134239A1, “Agents against microorganisms containing patchouli oil, patchouli alcohol and/or the derivatives thereof” (priority 2003, published 2006).

Tests used:
Assay type in all cases: cell-based
[1] = tested on: Aspergillus niger, DSM 1988; test: Sporulation of Aspergillus niger on the surface of an acetate silicone jointing compound (Example 3); settings: for Sporulation [%]: control series
Method: Effect on Patchouli Oil on the Sporulation of Aspergillus niger on the Surface of an Acetate Jointing Compound
Commercially available, but preservative-free, one-component silicone jointing compounds curing at room temperature (acetate system, cured 2.2×2.2×0.3 cm pieces of film) were disinfected with 70% EtOH (ethanol) and placed for 24 h in active component solutions with various concentrations. The test specimens were then re-washed twice with EtOH, rinsed with distilled water (sterile) and dried for 24 h. The test specimens were weighed before and after this treatment and the quantity of active component in the test specimens was thus determined together with the concentration of the active component solution. The test specimens were then placed on wort agar plates and thinly coated with agar in which fungal spores had been incorporated (10^5 CFU/ml Aspergillus niger, DSM 1988). The plates were incubated for 3 days at 25° C. Sporulation was visually evaluated from the test specimens and the sporulation rate in [%] was determined.

[2] = tested on: Aspergillus niger (DSM 1988); test: Sporulation of Aspergillus niger on a filter surface after 2 applications (Example 4); settings: for Sporulation [%]: 3 days at 25° C.
Method: Effect of Patchouli Oil on the Sporulation of Aspergillus niger on a Filter Surface after 2 Applications
Filter papers (2×2 cm) were disinfected and treated twice with a 1 hour interval with 50 μl of active-component solutions (in ethanol) differing in concentration. The test specimens were then dried. The test specimens were then placed on wort agar plates and the surface of the wort agar plates was contaminated with 100 μl of a germ suspension (10^3 CFU/ml) of Aspergillus niger (DSM 1988). The plates were incubated for 3 days at 25° C. Sporulation was visually evaluated and the sporulation rate in [%] was determined. […] Sporulation was inhibited by increasing concentrations of eugenol and was 95% suppressed at 90 μm.

[3] = tested on: Aspergillus niger (DSM 1988); test: Sporulation of Aspergillus niger on wort agar plates with active component in the agar (Example 1); settings: control series
Method: Effect of Patchouli Oil on the Sporulation of Aspergillus niger
(§1) Contamination of the surface of wort agar plates with 100 μl of a germ suspension (10^3 CFU/ml) of Aspergillus niger (DSM 1988). Various quantities of active component (dissolved in ethanol, for final concentrations see Table 1) were added to the agar plates beforehand. The plates were incubated for 3 days at 25° C. Sporulation was visually evaluated and the sporulation rate in [%] was determined.
Active component: patchouli oil obtained by steam distillation (mixture of patchouli oil from Kaders, Sensient, Polarome and Nitsche)

[4] = tested on: Aspergillus niger (DSM 1988); test: Sporulation of Aspergillus niger on wort agar plates, patchouli alcohol (Example 2)
Method: Effect of Patchouli Alcohol on the Sporulation of Aspergillus niger
as §1, with “component (solutions” for “component (dissolved”, “Table 2)” for “Table 1)”, “for 5” for “for 3”, “determined. […] Sporulation was inhibited with increasing concentrations and was 95% suppressed at 450 μm.” for “determined.”

Structure (SMILES): C=CCc1ccc(O)c(OC)c1 [eugenol]
- Suppression of sporulation ([1]; at 9 μm/g jointing compound): completely suppressed
- Suppression of sporulation ([2]; at 90 μm): 95%

Structure (SMILES): CC(C)=CCCC(C)=CCCC(C)=CCO [farnesol]
- Sporulation [%] ([3]; concentration 25 μm in wort agar): 90%
- Sporulation [%] ([3]; concentration 62.5 μm in wort agar): 75%
- Sporulation [%] ([3]; concentration 125 μm in wort agar): 50%
- Sporulation [%] ([3]; concentration 250 μm in wort agar): 10%
- Sporulation [%] ([3]; concentration 500 μm in wort agar): 0%
- Sporulation [%] ([1]; 0.4 μm/g jointing compound): 100%
- Sporulation [%] ([1]; 1.1 μm/g jointing compound): 100%
- Sporulation [%] ([1]; 17 μm/g jointing compound): 30%
- Inhibition of sporulation compared with identical concentrations of patchouli oil ([1]; parallel test series on jointing compound): inhibited, but to a far lesser extent
- Inhibition of sporulation compared with identical concentrations of patchouli oil ([2]; second, parallel test series on filter paper): inhibited, but to a lesser extent
- Sporulation [%] ([2]; solution concentration 0.5 μm, filter paper treated twice with 50 μl): 100%
- Sporulation [%] ([2]; solution concentration 5 μm, filter paper treated twice): 100%
- Sporulation [%] ([2]; solution concentration 25 μm, filter paper treated twice): 100%
- Sporulation [%] ([2]; solution concentration 35 μm, filter paper treated twice): 60%
- Sporulation [%] ([2]; solution concentration 50 μm, filter paper treated twice): 80%
- Sporulation [%] ([2]; solution concentration 70 μm, filter paper treated twice): 50%
- Sporulation [%] ([2]; solution concentration 90 μm, filter paper treated twice): 40%

Structure (SMILES): C[C@H]1CC[C@@]2(O)C(C)(C)[C@@H]3CC[C@@]2(C)[C@H]1C3 [patchouli alcohol, Patchouli alcohol]
- Inhibition of growth of the test strain ([4]; all concentrations used (up to 450 μm)): None of the active component concentrations used inhibited the growth
- Suppression of sporulation ([4]; at 450 μm, 5 days at 25° C.): 95%
- Sporulation [%] ([4]; concentration 225 μm in wort agar, 5 days at 25° C.): 95%
- Sporulation [%] ([4]; concentration 450 μm in wort agar, 5 days at 25° C.): 5%
